In brackets after ≈: the same amount, converted by molar mass.

Assay [1] relates to Staphylococcus aureus. Put plainly: Antibacterial activity against methicillin-resistant Staphylococcus aureus ATCC 6548 incubated for 6 to 8 hrs by MABA. The format is functional. As to conditions: time 6-8 hrs.
In assay [2] the test system is Staphylococcus aureus. Put plainly: Antibacterial activity against methicillin-sensitive Staphylococcus aureus incubated for 6 to 8 hrs by MABA. As to conditions: time 6-8 hrs. The format is functional. A general note: Resazurin is reduced to fluorescent resorufin, in cell work by metabolically active cells.
Assay [3] deals with Enterococcus faecium. The experiment in a line: Antibacterial activity against vancomycin-resistant Enterococcus faecium incubated for 6 to 8 hrs by MABA. The format is functional. The note with it: time 6-8 hrs.
In assay [4] the test system is Enterococcus faecium. Put plainly: Antibacterial activity against vancomycin-sensitive Enterococcus faecium incubated for 6 to 8 hrs by MABA. The note with it: time 6-8 hrs. The format is functional.
The subject of assay [5] is A549. The experiment in a line: Cytotoxicity against human A549 cells assessed as reduction in cell viability after 72 hrs by MTT assay. The format is functional, cell-based. As to conditions: Homo sapiens, A549, 72 h. On the technique in general: Tetrazolium dyes change colour on reduction, which living cells bring about.
Assay [6] deals with HeLa. Put plainly: Cytotoxicity against human HeLa cells assessed as reduction in cell viability after 72 hrs by MTT assay. The format is functional, cell-based. The note with it: Homo sapiens, HeLa, 72 h.
Assay [7] relates to HepG2. Put plainly: Cytotoxicity against human HepG2 cells assessed as reduction in cell viability after 72 hrs by MTT assay. The format is functional, cell-based. As to conditions: Homo sapiens, HepG2, 72 h.
In assay [8] the test system is MCF7. Put plainly: Cytotoxicity against human MCF7 cells assessed as reduction in cell viability after 72 hrs by MTT assay. The format is functional, cell-based. As to conditions: Homo sapiens, MCF7, 72 h.
Assay [9] has as its system Vero. The experiment in a line: Cytotoxicity against African green monkey Vero cells assessed as reduction in cell viability after 72 hrs by MTT assay. The format is cell-based, Chlorocebus sabaeus. The note with it: Chlorocebus sabaeus, Vero, 72 h.

For the molecule `COc1cc(C)c(-c2cc(OC)cc3cc4c(c(O)c23)C(=O)c2c(O)cc(O)cc2C4(C)C)c(O)c1`, the MIC in [1], in [2], in assay [3] and in assay [4] was 1.25 µg/mL (≈ 2.57 µM) throughout. The IC50 – broadly, the concentration that inhibits the measured activity by half – in assay [5] is 3.3 µM; in assay [6], 4.7 µM; in assay [7], 4.4 µM; in assay [8] it was 7.1 µM; in [9], 6.4 µM.

Consider `COc1cc2c(c(O)c1Cl)C(=O)c1c(cc3cc(O)cc(-c4c(C)c(OC)c(OC)c(Cl)c4O)c3c1O)C2(C)C`, for which the MIC – broadly, the least concentration at which growth counts as inhibited – is 1.25 µg/mL (≈ 2.14 µM) in assay [1], 1.25 µg/mL (≈ 2.14 µM) in [2], 5 µg/mL (≈ 8.54 µM) in [3] and 2.5 µg/mL (≈ 4.27 µM) in [4]. The 50% inhibitory concentration (IC50) was 9.1 µM in assay [5]; 7.2 µM in assay [6]; 9.9 µM in assay [7]; 17.8 µM in assay [8]; 14.5 µM in assay [9].

For `COc1c(Cl)c(C)c(-c2cc(O)cc3cc4c(c(O)c23)C(=O)c2c(cc(O)c(Cl)c2O)C4(C)C)c(O)c1Cl`, the MIC in [1], in assay [2], in assay [3] and in assay [4] was 1.25 µg/mL (≈ 2.17 µM) throughout. The concentration for half-maximal inhibition (IC50) in assay [5] worked out at 5 µM; in assay [6], 6 µM; in [7] it was 7.7 µM; in [8], 14.4 µM; in assay [9], 12.4 µM.

In the case of `COc1cc(-c2c(O)cc(O)c(Cl)c2C)c2c(O)c3c(cc2c1)C(C)(C)c1cc(OC)c(Cl)c(O)c1C3=O`, the MIC in [1] is 1.25 µg/mL (≈ 2.25 µM); in [2], 2.5 µg/mL (≈ 4.5 µM); in assay [3] it was 5 µg/mL (≈ 9 µM); in assay [4] it was 1.25 µg/mL (≈ 2.25 µM). The half-inhibitory concentration (IC50) amounted to 6.4 µM in assay [5]; 5.3 µM in assay [6]; 7.3 µM in [7]; 10.7 µM in assay [8]; 13.7 µM in assay [9].

Take `COc1cc2c(c(O)c1Cl)C(=O)c1c(cc3c(Cl)c(O)cc(-c4c(C)c(Cl)c(OC)c(Cl)c4O)c3c1O)C2(C)C`: the MIC in assay [1] came out at 2.5 µg/mL (≈ 4 µM); in [2] it was 2.5 µg/mL (≈ 4 µM); in assay [3] it was 5 µg/mL (≈ 8.01 µM); in assay [4], 2.5 µg/mL (≈ 4 µM). In addition, the IC50 in assay [5] was 5.6 µM; in assay [6] it was 9.9 µM; in assay [7], 8.8 µM; in assay [8], 13.9 µM; in [9], 12 µM.

Take `COc1cc(C)c(-c2cc(OC)cc3cc4c(c(O)c23)C(=O)c2c(cc(O)c(Cl)c2O)C4(C)C)c(O)c1`: the MIC in assay [1] is 2.5 µg/mL (≈ 4.8 µM); in assay [2], 2.5 µg/mL (≈ 4.8 µM); in assay [3] it was 5 µg/mL (≈ 9.6 µM); in assay [4], 2.5 µg/mL (≈ 4.8 µM). For the same molecule, the IC50 stood at 5.6 µM in assay [5]; 7 µM in [6]; 12.1 µM in assay [7]; 24.3 µM in assay [8]; 18.9 µM in assay [9].

As to `COc1cc(C)c(-c2cc(OC)c(Cl)c3cc4c(c(O)c23)C(=O)c2c(cc(O)c(Cl)c2O)C4(C)C)c(O)c1`, the MIC came to 1.25 µg/mL (≈ 2.25 µM) in [1], 1.25 µg/mL (≈ 2.25 µM) in [2], 2.5 µg/mL (≈ 4.5 µM) in assay [3] and 2.5 µg/mL (≈ 4.5 µM) in [4]. The IC50 worked out at 4.8 µM in assay [5]; 6 µM in assay [6]; 7.2 µM in [7]; 7.6 µM in assay [8]; 4.8 µM in assay [9].

As for `COc1cc(C)c(-c2cc(O)cc3cc4c(c(O)c23)C(=O)c2c(cc(O)c(Cl)c2O)C4(C)C)c(O)c1`, the MIC in assay [1] is 5 µg/mL (≈ 9.86 µM); in [2], 5 µg/mL (≈ 9.86 µM); in [3] it was 10 µg/mL (≈ 19.7 µM); in assay [4] it was 2.5 µg/mL (≈ 4.93 µM). Also, the IC50 in assay [5] was 13.3 µM; in assay [6], 15.2 µM; in [7] it was 11.9 µM; in assay [8], 40.3 µM; in assay [9], 33 µM.

With `COc1cc2c(c(O)c1Cl)C(=O)c1c(cc3c(Cl)c(OC)cc(-c4c(O)cc(O)c(Cl)c4C)c3c1O)C2(C)C`, the minimal inhibitory concentration (MIC) turned out to be 2.5 µg/mL (≈ 4.24 µM) in assay [1], 2.5 µg/mL (≈ 4.24 µM) in assay [2], 5 µg/mL (≈ 8.48 µM) in assay [3] and 1.25 µg/mL (≈ 2.12 µM) in assay [4]. For the same molecule, the half-inhibitory concentration (IC50) in [5] was determined as 5.2 µM; in assay [6] it was 6.3 µM; in assay [7] it was 6.2 µM; in [8], 10.1 µM; in [9] it was 7.9 µM.

Take `COc1cc(C)c(-c2cc(O)c(Cl)c3cc4c(c(O)c23)C(=O)c2c(cc(O)c(Cl)c2O)C4(C)C)c(O)c1`: the minimum inhibitory concentration (MIC) in [1] was found to be 1.25 µg/mL (≈ 2.31 µM); in [2], 1.25 µg/mL (≈ 2.31 µM); in assay [3] it was 5 µg/mL (≈ 9.24 µM); in assay [4] it was 2.5 µg/mL (≈ 4.62 µM). For the same molecule, the IC50 came out at 8.9 µM in assay [5]; 11 µM in assay [6]; 9.4 µM in [7]; 21.7 µM in assay [8]; 47 µM in assay [9].

Values taken from ChEMBL document CHEMBL4811289, “Antibacterial and Cytotoxic Phenyltetracenoid Polyketides from Streptomyces morookaense” (J Nat Prod, 2021).
